Measured values: patent US20220288052A1, “COMPOUND FOR COMBINATION TREATMENT” (priority 2019, published 2022)
Read-outs that look alike come from different tables or passages of the source.

Experiments:
5-HT transporter = 5-HT transporter (Rattus norvegicus, UniProt P31652); assay: ^3H-uptake rat, 5-HT transporter; assay type: biochemical
Description: (§1) Compound (I) has been characterized as a monoamine reuptake inhibitor, based on the profile in a series of functional assays (Table 2).

[1] = target: T1, dopamine transporter (DAT) (Mus musculus, UniProt Q61327); assay: MPTP model of DAT inhibition (striatal dopamine depletion); assay type: in vivo, C57 mouse; parameters: Dopamine Mean ± SEM / DOPAC Mean ± SEM / HVA Mean ± SEM: unit not given here
T1 construct: in vivo DAT transporter occupancy (open bars) in mouse striatum; from tissue; host or cells: mouse striatum (in vivo; C57 mice in the MPTP model)
T1 sequence (Q61327 whole entry): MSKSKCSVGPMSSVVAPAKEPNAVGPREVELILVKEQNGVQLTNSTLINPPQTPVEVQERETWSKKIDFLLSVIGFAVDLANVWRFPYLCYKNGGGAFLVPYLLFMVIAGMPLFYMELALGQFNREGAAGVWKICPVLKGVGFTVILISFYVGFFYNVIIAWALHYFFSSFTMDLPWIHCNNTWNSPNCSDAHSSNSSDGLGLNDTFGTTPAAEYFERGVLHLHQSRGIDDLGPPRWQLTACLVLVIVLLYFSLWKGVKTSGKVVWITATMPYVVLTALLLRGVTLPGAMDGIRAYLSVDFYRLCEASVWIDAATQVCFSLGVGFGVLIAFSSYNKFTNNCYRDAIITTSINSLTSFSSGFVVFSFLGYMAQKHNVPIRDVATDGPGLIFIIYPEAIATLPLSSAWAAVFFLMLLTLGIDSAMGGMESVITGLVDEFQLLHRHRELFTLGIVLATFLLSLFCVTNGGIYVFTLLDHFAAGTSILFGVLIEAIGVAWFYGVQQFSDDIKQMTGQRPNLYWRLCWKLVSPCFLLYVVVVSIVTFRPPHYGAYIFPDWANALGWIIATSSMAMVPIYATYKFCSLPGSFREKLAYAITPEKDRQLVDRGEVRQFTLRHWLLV
Description: In this model compound (I) induced protection against the dopamine depletion induced by the entry of the MPTP metabolite MPP+ into the dopamine terminals of the mouse C57 striatal tissue.

[2] = Bioavailability study in dog; assay type: in vivo; settings: for half-life / AUC(0-inf) / Cmax / Tmax / bioavailability / Vd / clearance: plasma; for bioavailability: 2.5 mg/kg p.o. vs 0.5 mg/kg i.v.
Description: A bioavailability study was also conducted in dogs. […] The i.v. dose, which was given 7 days later, was chosen as 0.5 mg/kg in order to prevent observable CNS effects. The difference between the p.o. and the i.v. dose might overestimate the bioavailability to a certain extent. […] T½ is in the same range in the two dogs and after both p.o. and i.v. administration (1.4-1.7 h).

[3] = 5 days p.o. tolerated dose study in female mice (non-GLP); assay type: in vivo, mouse; settings: p.o. 5 days, 3, 5, 15, 30, 60 mg/kg
[4] = Metabolic stability in human hepatocytes; assay type: in vitro ADME; settings: 120 minutes at 10 μM
Description: The stability of compound (I) was tested in human hepatocytes incubating for 120 minutes at 10 μM. The compound was stable in human hepatocytes.

NA transporter [5] = target: NA transporter (Homo sapiens, UniProt P23975); assay: ^3H-uptake human, NA transporter; assay type: biochemical
NA transporter (Homo sapiens, UniProt P23975), sequence (P23975 whole entry): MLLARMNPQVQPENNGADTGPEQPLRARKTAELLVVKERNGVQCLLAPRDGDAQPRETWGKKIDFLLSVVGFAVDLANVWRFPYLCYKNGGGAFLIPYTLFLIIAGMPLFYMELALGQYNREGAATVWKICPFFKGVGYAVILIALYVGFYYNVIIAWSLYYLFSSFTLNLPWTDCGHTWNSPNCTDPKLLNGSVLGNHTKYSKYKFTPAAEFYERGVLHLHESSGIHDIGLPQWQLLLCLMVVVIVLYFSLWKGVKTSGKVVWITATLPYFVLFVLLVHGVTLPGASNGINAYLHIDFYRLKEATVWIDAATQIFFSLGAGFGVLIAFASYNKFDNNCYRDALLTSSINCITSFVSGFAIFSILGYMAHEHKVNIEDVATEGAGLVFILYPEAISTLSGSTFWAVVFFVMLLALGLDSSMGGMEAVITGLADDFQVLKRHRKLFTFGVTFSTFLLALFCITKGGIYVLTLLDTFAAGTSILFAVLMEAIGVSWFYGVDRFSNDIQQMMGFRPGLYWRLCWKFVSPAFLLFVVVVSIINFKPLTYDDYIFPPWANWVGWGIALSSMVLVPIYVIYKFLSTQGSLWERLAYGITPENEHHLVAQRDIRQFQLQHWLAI
Description: as §1

plasma protein = assay: Plasma protein binding by equilibrium dialysis, human; assay type: in vitro ADME
Description: The plasma protein binding was tested in rat, mouse, dog and human plasma by equilibrium dialysis. The plasma protein binding of this compound is remarkably low (Table 24).

[6] = Cardiovascular safety in anaesthetised dogs
Description: Data presented are mean±s.e. mean where n=4 for all time points, excluding D2t7 where n=3, D3t7 where n=2, and D4t7 and D4t26 where no data was available. Animals received 1, 3, 10, and 30 mg/kg compound (I) as 4 intravenous infusions (starting at t0, D1t30, D2t30 and D3t30, respectively). Each dose was administered over 5 min, using an infusion pump, and the dose volume for each treatment was 2 ml/kg, with the exception of the fourth dose which was 3 ml/kg.
Data presented are mean±s.e. mean where n=4 for all time points, excluding D4t7 and D4t26 where no data was available. Animals received 1, 3, 10, and 30 mg/kg compound (I) as 4 intravenous infusions (starting at t0, D1t30, D2t30 and D3t30, respectively). Each dose was administered over 5 min, using an infusion pump, and the dose volume for each treatment was 2 ml/kg, with the exception of the fourth dose which was 3 ml/kg.

NA transporter [7] = target: NA transporter (Rattus norvegicus, UniProt Q63380); assay: ^3H-uptake rat, NA transporter; assay type: biochemical
NA transporter (Rattus norvegicus, UniProt Q63380), sequence (Q63380 1-617): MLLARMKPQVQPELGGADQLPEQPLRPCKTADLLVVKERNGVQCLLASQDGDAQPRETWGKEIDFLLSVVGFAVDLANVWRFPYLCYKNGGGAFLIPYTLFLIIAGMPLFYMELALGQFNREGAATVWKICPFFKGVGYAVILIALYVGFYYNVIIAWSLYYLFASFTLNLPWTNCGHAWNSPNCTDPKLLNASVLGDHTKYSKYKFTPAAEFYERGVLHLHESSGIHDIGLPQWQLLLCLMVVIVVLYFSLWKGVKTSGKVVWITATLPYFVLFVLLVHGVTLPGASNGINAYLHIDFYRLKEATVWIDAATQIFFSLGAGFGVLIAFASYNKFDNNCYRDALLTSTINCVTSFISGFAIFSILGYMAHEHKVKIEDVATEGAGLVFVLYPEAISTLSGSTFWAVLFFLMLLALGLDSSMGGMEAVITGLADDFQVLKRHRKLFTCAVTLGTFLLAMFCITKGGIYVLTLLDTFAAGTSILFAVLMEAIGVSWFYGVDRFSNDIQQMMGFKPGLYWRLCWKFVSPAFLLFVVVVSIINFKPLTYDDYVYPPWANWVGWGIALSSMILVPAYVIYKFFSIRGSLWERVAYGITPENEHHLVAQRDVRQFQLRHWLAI
Description: as §1

CYP 2C9 = CYP 2C9 (Homo sapiens, UniProt P11712); assay: CYP450 inhibition, cocktail of selective substrates, 2C9; assay type: in vitro ADME; settings: CYP 2C9, Tolbutamide to 4-hydroxytolbutamide; read-out: IC50 of compound (I)
CYP 2C9, sequence (P11712 whole entry): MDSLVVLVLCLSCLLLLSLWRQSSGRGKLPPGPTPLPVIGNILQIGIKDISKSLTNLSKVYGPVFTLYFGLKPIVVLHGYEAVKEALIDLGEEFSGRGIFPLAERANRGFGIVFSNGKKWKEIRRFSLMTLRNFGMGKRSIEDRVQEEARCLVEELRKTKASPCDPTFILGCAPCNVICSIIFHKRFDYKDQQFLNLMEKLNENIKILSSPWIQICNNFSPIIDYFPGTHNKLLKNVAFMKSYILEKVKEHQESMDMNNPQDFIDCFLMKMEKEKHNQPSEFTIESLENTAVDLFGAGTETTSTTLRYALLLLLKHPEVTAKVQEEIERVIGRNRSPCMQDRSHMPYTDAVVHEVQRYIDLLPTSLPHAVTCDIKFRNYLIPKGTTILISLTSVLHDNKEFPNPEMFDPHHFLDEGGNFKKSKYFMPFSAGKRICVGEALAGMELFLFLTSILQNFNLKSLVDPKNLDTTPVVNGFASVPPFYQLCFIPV
Description: Compound (I) was tested for CYP450 inhibition using a cocktail of selective substrates. […] This might be addressed later in a clinical study.

[8] = 7.5 mg/kg p.o. 0 min + MPTP 25 mg/kg s.c. 60 min
[9] = 15 mg/kg p.o. 0 min + MPTP 25 mg/kg s.c. 60 min
[10] = 30 mg/kg p.o. 0 min + MPTP 25 mg/kg s.c. 60 min
[11] = po, Female beagle dog, 2.5 mg/kg p.o.
[12] = po, Male beagle dog, 2.5 mg/kg p.o.

5-HT transporter, sequence (P31652 whole entry): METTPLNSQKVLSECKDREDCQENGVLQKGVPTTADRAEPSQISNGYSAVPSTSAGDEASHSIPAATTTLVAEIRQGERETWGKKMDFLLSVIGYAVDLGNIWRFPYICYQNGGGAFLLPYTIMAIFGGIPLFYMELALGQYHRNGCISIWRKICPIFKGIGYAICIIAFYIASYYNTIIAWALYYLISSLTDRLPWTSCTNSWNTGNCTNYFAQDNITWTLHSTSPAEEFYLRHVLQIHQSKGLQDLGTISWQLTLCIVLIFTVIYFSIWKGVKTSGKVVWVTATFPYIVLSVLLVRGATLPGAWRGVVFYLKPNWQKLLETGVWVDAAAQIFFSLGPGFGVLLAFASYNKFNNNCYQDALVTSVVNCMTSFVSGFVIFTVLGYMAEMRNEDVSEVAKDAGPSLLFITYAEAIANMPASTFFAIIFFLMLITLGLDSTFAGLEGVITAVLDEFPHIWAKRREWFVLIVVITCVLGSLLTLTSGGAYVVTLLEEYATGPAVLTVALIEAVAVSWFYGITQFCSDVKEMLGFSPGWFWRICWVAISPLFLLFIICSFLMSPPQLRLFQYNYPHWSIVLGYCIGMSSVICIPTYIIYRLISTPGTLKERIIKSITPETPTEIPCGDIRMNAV

## O=c1ccc2ccc(O[C@@H]3C[C@H]4CC[C@@H](C3)N4)cc2o1 [Compound (I), exo-7-(8-aza-bicyclo[3.2.1]oct-3-yloxy)-chromen-2-one]
5-HT transporter
  IC50: 0.45 nM
[1]; [8]
  DOPAC Mean ± SEM: 1 ± 0.2
  Dopamine Mean ± SEM: 6.3 ± 1.1
  HVA Mean ± SEM: 0.7 ± 0.1
[1]; [9]
  DOPAC Mean ± SEM: 1.7 ± 0.1^
  Dopamine Mean ± SEM: 12.5 ± 0.7
  HVA Mean ± SEM: 1 ± 0.1
[1]; 15 mg/kg, C57 mouse striatal tissue
  Protection against MPTP-induced dopamine depletion: approximately 90%
[1]; [10]
  DOPAC Mean ± SEM: 2.1 ± 0.2^
  Dopamine Mean ± SEM: 14.7 ± 1.2
  HVA Mean ± SEM: 1.2 ± 0.1
[2]; both sexes, beagle, dog, other: p.o. and i.v., the two dogs, after both p.o. and i.v. administration, read-out: T½
  half-life: 1.4 to 1.7 h
[2]; dogs, after 2.5 mg/kg p.o.
  CNS effects: some CNS effects were observed
[2]; iv, Female beagle dog, 0.5 mg/kg i.v., read-out: AUC(0-∞) i.v.
  AUC(0-inf): 194 ng·h/mL
[2]; iv, Female beagle dog, 0.5 mg/kg i.v., read-out: T½ i.v. (converted)
  half-life: 1.4 h
[2]; iv, Male beagle dog, 0.5 mg/kg i.v., read-out: AUC(0-∞) i.v.
  AUC(0-inf): 343 ng·h/mL
[2]; iv, Male beagle dog, 0.5 mg/kg i.v., read-out: T½ i.v. (converted)
  half-life: 1.6 h
[2]; [11]
  Cmax: 339 ng/mL
  Tmax: 0.5 h
[2]; po, Female beagle dog
  bioavailability: 114%
[2]; po, Female beagle dog, 2.5 mg/kg p.o., read-out: AUC(0-∞) p.o.
  AUC(0-inf): 1110 ng·h/mL
[2]; po, Female beagle dog, 2.5 mg/kg p.o., read-out: T½ p.o. (converted)
  half-life: 1.6 h
[2]; [12]
  Cmax: 418 ng/mL
  Tmax: 0.5 h
[2]; po, Male beagle dog
  bioavailability: 84%
[2]; po, Male beagle dog, 2.5 mg/kg p.o., read-out: AUC(0-∞) p.o.
  AUC(0-inf): 1440 ng·h/mL
[2]; po, Male beagle dog, 2.5 mg/kg p.o., read-out: T½ p.o. (converted)
  half-life: 1.7 h
[2]; Female beagle dog
  Vd: 5 L/kg
  clearance: 43.3 mL/min/kg
[2]; Male beagle dog
  Vd: 3.4 L/kg
  clearance: 25 mL/min/kg
[3]
  Activity: increase in activity (sedation and stereotypic behaviour)
  Body weight: no significant changes in bodyweight
[4]
  Stability in human hepatocytes: stable
NA transporter [5]
  IC50: 46 nM
  Ki: 50.1 nM
NA transporter [5]; NA versus 5-HT
  Human transporter ratio: 26
Plasma protein
  fraction unbound at 2710 ng/ml: 0.714
[6]; 1, 3, 10 and 30 mg/kg i.v.
  Heart rate: Dose-dependent increases
  RR interval: dose-dependent decreases
[6]; 1, 3, 10 and 30 mg/kg i.v., apparent decrease following 10 and 30 mg/kg
  Arterial blood pressure (mean, systolic and diastolic): No consistent changes
[6]; 1, 3, 10 and 30 mg/kg i.v., potential PR shortening at 30 mg/kg
  PR interval and QRS duration: relatively unaffected
[6]; beagle, dog, plasma, intravenous
  concentration at 5 min: 6500 to 15000 ng/mL
[6]; corrected for heart rate/RR interval, also when paced at 90 or 110 bpm
  QTcF and QTcV intervals: clear dose-dependent increase
NA transporter [7]
  IC50: 85 nM
CYP 2C9
  IC50: > 100000 nM
